In the NIST ThermoML archive (doi:10.1021/acs.jced.8b00521):
Numbers after ± are expanded uncertainties.

Assay: xn = mol fraction of the nth substance listed
Settings: 323.15 K, Liquid; for mass density: Vibrating tube method; for viscosity: Capillary tube (Ostwald / Ubbelohde) method

CCCCCCCC(=O)OCC [ethyl octanoate] + CCCCCCCCCCCC(=O)OC
Settings	mass density [kg/m3]	viscosity [mPa·s]
2980 kPa, x2 = 0.6001	845 ± 2	–
3010 kPa, x2 = 0.4999	844 ± 2	1.31 ± 0.04
3020 kPa, x2 = 0.4	844 ± 2	1.24 ± 0.04
3020 kPa, x2 = 0.9	846 ± 2	1.65 ± 0.05
3040 kPa, x2 = 0.8001	846 ± 2	1.57 ± 0.05
6010 kPa, x2 = 0.8001	848 ± 2	1.61 ± 0.05
6020 kPa, x2 = 0.3001	845 ± 2	1.22 ± 0.04
6030 kPa, x2 = 0.4999	846 ± 2	1.35 ± 0.04
6030 kPa, x2 = 0.6999	847 ± 2	1.5 ± 0.05
6040 kPa, x2 = 0.6001	847 ± 2	1.42 ± 0.04
6060 kPa, x2 = 0.1	844 ± 2	1.08 ± 0.03
6060 kPa, x2 = 0.1999	845 ± 2	1.15 ± 0.04
6080 kPa, x2 = 0.4	846 ± 2	1.29 ± 0.04
6080 kPa, x2 = 0.9	849 ± 2	1.7 ± 0.05
8930 kPa, x2 = 0.6999	849 ± 2	1.56 ± 0.05
8980 kPa, x2 = 0.8001	850 ± 2	1.67 ± 0.05
8980 kPa, x2 = 0.9	850 ± 2	1.75 ± 0.05
9030 kPa, x2 = 0.6001	849 ± 2	1.46 ± 0.05
9040 kPa, x2 = 0.1	846 ± 2	1.11 ± 0.03
9070 kPa, x2 = 0.3001	847 ± 2	1.26 ± 0.04
9070 kPa, x2 = 0.4999	848 ± 2	1.39 ± 0.04
9090 kPa, x2 = 0.4	847 ± 2	1.32 ± 0.04
9140 kPa, x2 = 0.1999	847 ± 2	1.19 ± 0.04
11900 kPa, x2 = 0.4	849 ± 2	1.36 ± 0.04
11960 kPa, x2 = 0.6001	850 ± 2	1.5 ± 0.05
11970 kPa, x2 = 0.4999	850 ± 2	1.43 ± 0.04
11990 kPa, x2 = 0.3001	849 ± 2	1.29 ± 0.04
11990 kPa, x2 = 0.8001	852 ± 2	1.72 ± 0.05
12000 kPa, x2 = 0.9	852 ± 2	1.79 ± 0.06
12020 kPa, x2 = 0.1	847 ± 2	1.14 ± 0.04
12020 kPa, x2 = 0.1999	848 ± 2	1.22 ± 0.04
12060 kPa, x2 = 0.6999	851 ± 2	1.6 ± 0.05
14960 kPa, x2 = 0.6001	852 ± 2	1.55 ± 0.05
14960 kPa, x2 = 0.9	854 ± 2	1.85 ± 0.06
14970 kPa, x2 = 0.8001	853 ± 2	1.76 ± 0.05
14980 kPa, x2 = 0.6999	853 ± 2	1.65 ± 0.05
14990 kPa, x2 = 0.1	849 ± 2	1.18 ± 0.04
14990 kPa, x2 = 0.1999	850 ± 2	1.26 ± 0.04
15010 kPa, x2 = 0.4	851 ± 2	1.4 ± 0.04
15020 kPa, x2 = 0.3001	850 ± 2	1.33 ± 0.04
15040 kPa, x2 = 0.4999	851 ± 2	1.48 ± 0.05
